What was measured:
[1] = tested on: human CD34+ hematopoietic stem cells isolated from cord blood; test: Colony forming unit (CFU) assay; assay type: cell-based; details: concentration < 5μM
Procedure: We performed the colony forming unit (CFU) assays using human CD34+ hematopoietic stem cells isolated from cord blood to elucidate hematologic toxicity. We noted no effect on BFU-E, GM and mixed colonies at a concentration < 5μM of BO-1055 on CFU assay (Figure 2C).
Colony assays were performed in triplicate in 24 well plates using 1.2% methylcellulose (Dow Chemical, Waterloo, NY), 30% FCS, 57.2 μM β-mercaptoethanol, 2 mM glutamine, 0.5 mM hemin (Sigma, USA), 20 ng/mL interleukin 3 (IL-3), granulocyte colony stimulating factor (G-CSF), c-KIT ligand (KL) and 6 U/mL erythropoietin (Epo). IL-3 and KL and Epo were obtained from R and D Systems (Minneapolis, USA) and G-CSF was from Amgen (Thousand Oaks, CA). Colonies were scored 14 days after plating as per the protocol described earlier.

[2] = In vivo toxicity testing: complete blood counts, renal and liver function tests; details: C57 healthy mice
Excerpt: However myelotoxicity has been a challenge, resulting in delay in treatment cycles and infectious complications. Hematopoietic toxicity was partly alleviated by the administration of G-CSF [32] and allowed dose-escalation. […] Overcoming hematopoietic and organ toxicities will allow us to administer chemotherapy at a higher dose and at a shorter interval, which can potentially result in better cure rates. […] This was also seen in the in vivo toxicity study in C57 healthy mice where hematologic toxicity was not observed at day 10 after 5 doses of BO-1055 at 30mg/kg/dose (Supplementary Table 1). […]
Supplementary table 1. Complete blood counts, renal and […] function tests in C57 healthy mice (n=4 per group) in control and treatment groups. Treatment group received BO--1055 at 30mg/kg/dose on days […]
Control group BO--1055 group Control group BO--1055 group baseline baseline day 10 day 10
Mean SD Mean SD Mean SD Mean SD

A204 cells = test: Cell cycle analysis (propidium iodide); assay type: cell-based, human; details: A204, prominent at 12-24h of exposure
Procedure: (§1) Cell viability and apoptosis were determined using 7-AAD (BD Pharmingen, San Diego, CA) and Annexin V-APC (BD Pharmingen, San Diego, CA) staining according to the instructions provided by the manufacturer and as previously published. Cell cycle fractions were determined by propidium iodide nuclear staining. Briefly, cells were harvested, washed in PBS, fixed with 70% ethanol, and incubated with propidium iodide/RNase buffer (BD Biosciences, San Diego, CA) for 15 minutes at room temperature. Data was collected on BD LSR Fortessa fluorescence-activated cell analyzer using BD FACS Diva software and analyzed using FlowJo version 9.6 software (Tree Star, Inc. Ashland, OR). Cell cycle analysis was done by applying the Dean/Jett/Fox cell cycle model using FlowJo software.

A673 cells = test: Cell cycle analysis (propidium iodide); assay type: cell-based, human; details: A673, prominent at 12-24h of exposure
Procedure: as §1

A673 xenografts = A673 xenografts in NSG mice; assay type: in vivo; details: 10mg/kg
Procedure: All mouse experiments were performed at the animal core facility at MSKCC under an approved protocol following the IACUC guidelines. Five to seven-week-old NOD/SCID IL2R gamma null (NSG) mice (bred at the Mouse Genetics Core Facility, MSKCC) were used for in vivo experiments. All mouse experiments were done following the IACUC guidelines at the animal facility at MSKCC. Tumors were induced using 10^6 A673 cells or A204 cells in 0.2ml 1:1 cellular medium, Matrigel matrix (BD Bioscience, Bedford, MA) and injected subcutaneously (s.q) into the right flank. The tumors were measured every 3 d with a caliper, and the diameters were recorded. Tumor volume was calculated by the formula a^2 b/2 where ‘a’ is the smallest and ‘b’ is the largest diameter. When the tumors reached 100mm^3, we randomized mice into control and drug treatment groups. Treatment groups received BO-1055 by tail vein injection at 10mg/kg, 20mg/kg and 30mg/kg q2d x 5 doses for mice bearing A673 xenografts. BO-1055 was given at 30mg/kg q2d x 5 doses for mice bearing A204 xenografts. De-identified patient tumor tissues were obtained in accordance with and approval from the MSKCC Institutional Review Board (IRB). Appropriate written consent and assent were obtained from the patients prior to sample collection. Patient derived xenografts were developed in NSG mice (second passage) from a patient with relapsed Ewing sarcoma, who was treated with two alkylating agents- cyclophosphamide and ifosfamide as part of a multi-agent chemotherapy prior to relapse. When the tumors reached 100mm^2, we randomized mice into control and drug treatment groups. Mice in the control groups received PBS injections while mice in the drug treatment group received the maximum tolerated dose (MTD) of cyclophosphamide 70mg/kg i.p. q2d x 3 (shown by shorter arrows) (Figure 5D). Tumor growth was not inhibited in the cyclophosphamide treated mice. When the tumors reached a size greater than 500mm^3, we started treatment with BO-1055 at a dose of 30mg/kg i.v. q2d x 4 doses (shown by longer arrows in Figure 4F). […]

A204 xenografts = A204 xenografts in nude mice; assay type: in vivo
Procedure: All mouse experiments were performed at the animal core facility at MSKCC under an approved protocol following the IACUC guidelines. Five to seven-week-old NOD/SCID IL2R gamma null (NSG) mice (bred at the Mouse Genetics Core Facility, MSKCC) were used for in vivo experiments. All mouse experiments were done following the IACUC guidelines at the animal facility at MSKCC. Tumors were induced using 10^6 A673 cells or A204 cells in 0.2ml 1:1 cellular medium, Matrigel matrix (BD Bioscience, Bedford, MA) and injected subcutaneously (s.q) into the right flank. The tumors were measured every 3 d with a caliper, and the diameters were recorded. Tumor volume was calculated by the formula a^2 b/2 where ‘a’ is the smallest and ‘b’ is the largest diameter. When the tumors reached 100mm^3, we randomized mice into control and drug treatment groups. Treatment groups received BO-1055 by tail vein injection at 10mg/kg, 20mg/kg and 30mg/kg q2d x 5 doses for mice bearing A673 xenografts. BO-1055 was given at 30mg/kg q2d x 5 doses for mice bearing A204 xenografts. De-identified patient tumor tissues were obtained in accordance with and approval from the MSKCC Institutional Review Board (IRB). Appropriate written consent and assent were obtained from the patients prior to sample collection. […]

[3] = 30mg/kg/dose on days 1,3,5,8 and 10, day 10, mean, n=4
[4] = 20mg/kg and 30mg/kg/dose q2d x 5

With `CN(C)CCNC(=O)c1cccc(NC(=O)Nc2ccc(N(CCCl)CCCl)cc2)c1` [BO-1055] the “effect on BFU-E, GM and mixed colonies” value [1] was “no effect”, the ALT [2, 3] was 89.50 U/L and the AST [2, 3] was 74.25 U/L. For the same molecule, the BASO [2, 3] was 0.45%, the “BASO#” value [2, 3] was 0.02 K/uL and the BUN [2, 3] was 24.50 mg/dL. For the same molecule, the BUN/CREA ratio [2, 3] was 125.40, the CREA [2, 3] was 0.20 mg/dL and the DBIL [2, 3] was 0.00 mg/dL. The EO [2, 3] was 2.93%, the “EO#” value [2, 3] was 0.13 K/uL and the GLU [2, 3] was 166.00 mg/dL. For the same molecule, the HCT [2, 3] was 46.30%, the HGB [2, 3] was 13.08 g/dL and the IBIL [2, 3] was 0.13 mg/dL. For the same molecule, the LYMPH [2, 3] was 51.63%, the “LYMPH#” value [2, 3] was 2.90 K/uL and the MCH [2, 3] was 14.40 pg. For the same molecule, the MCHC [2, 3] was 28.28 g/dL, the MCV [2, 3] was 51.03 fL and the MONO [2, 3] was 7.80%. For the same molecule, the “MONO#” value [2, 3] was 0.39 K/uL, the MPV [2, 3] was 6.38 fL and the NEUT [2, 3] was 37.20%. The “NEUT#” value [2, 3] was 1.90 K/uL, the PDW [2, 3] was 7.40 fL and the PLT [2, 3] was 1108.25 K/uL. It also gave an RBC [2, 3] of 9.08 M/uL, an RDW-CV [2, 3] of 23.18% and an RDW-SD [2, 3] of 32.48 fL. The RET [2, 3] was 4.72%, the “RET#” value [2, 3] was 426.88 K/uL and the TBIL [2, 3] was 0.23 mg/dL. For the same molecule, the TP [2, 3] was 3.77 g/dL, the “WBC#” value [2, 3] was 5.34 K/uL and the “change in hematocrit, platelet count or neutrophil count” value ([2]; day 10) was “did not reveal a significant change”. The hematologic toxicity ([2]; day 10 after 5 doses at 30mg/kg/dose) was “not observed”, the cell cycle effect (A204 cells) was “concentration-dependent accumulation of cells in the G2/M phase” and the cell cycle effect (A673 cells) was “concentration-dependent accumulation of cells in the G2/M phase”. The body weight (A673 xenografts; [4]) was “no significant decrease in body weight”, the survival (A673 xenografts; [4]) was “prolonged survival” and the tumor growth (A673 xenografts; 20mg/kg and 30mg/kg/dose q2d x 5, tail vein) was “inhibition of tumor growth”. The body weight (A204 xenografts; 30mg/kg q2d x 5) was “no significant decrease in body weight” and the tumor response (A204 xenografts; 30mg/kg q2d x 5, tail vein) was “Complete regression of tumors”.

Reference: paper PMC5190008, “BO-1055, a novel DNA cross-linking agent with remarkable low myelotoxicity shows potent activity in sarcoma models” (Oncotarget, 2016)
